Measurements: patent US20020052370A1, “Cyclopentyl-substituted glutaramide derivatives as inhibitors of neutral endopeptidase” (priority 2000, published 2002)

How the values were obtained:
[1] = tested on: vaginal and clitoral blood flow; test: Anaesthetised rabbit model of sexual arousal: pelvic nerve stimulated genital blood flow by laser Doppler; format: in vivo, Female New Zealand rabbits
Source text: Animal Model of arousal response
We have developed an animal model that mimics the physiological arousal response observed during female sexual arousal and directly reflects the clinical data obtained in human volunteers. The model uses Laser Doppler technologies to record small changes in vaginal and clitoral blood flow induced by pelvic nerve stimulation or vasoactive neurotransmitters. During sexual arousal there is an increase in genital blood flow resulting from increased innervation from the pelvic nerve. This increase in genital blood flow leads to increased genital lubribriation and genital sensitivity which are associated with sexual arousal. The major cause of FSAD is decreased genital blood flow and this manifests itself as reduced vaginal, labial and clitoral engorgement. Treatment of women with FSAD is achievable by restoration of the normal sexual arousal response. This can be achieved by enhancing genital blood flow.
The title product from Example 29 was administered using this animal model according to the following protocol to show an enhancement in pelvic nerve stimulated increases in genital blood flow in the rabbit.
Two routes of administration were studied: a) intravenous administration and b) topical administration. Both studies used the anesthatised rabbit model according to the following protocol.
Female New Zealand rabbits (˜2.5 kg) were pre-medicated with a combination of Medetomidine (Domitor®) 0.5 ml/kg i.m., and Ketamine (Vetalar®) 0.25 ml/kg i.m. whilst maintaining oxygen intake via a face mask. The rabbits were tracheotomised using a Portex™ uncuffed endotracheal tube 3 ID, connected to ventilator and maintained a ventilation rate of 30-40 breaths per minute, with an approximate tidal volume of 18-20 ml, and a maximum airway pressure of 10 cm H2O. Anaesthesia was then switched to Isoflurane and ventilation continued with O2 at 2 l/min. The right marginal ear vein was cannulated using a 23 G or 24 G catheter, and Lactated Ringer solution perfused at 0.5 ml/min. The rabbit was maintained at 3% Isoflurane during invasive surgery, dropping to 2% for maintenance anaesthesia.
A ventral midline incision was made into the abdominal cavity. The incision was about 5 cm in length just above the pubis. The fat and muscle was bluntly dissected away to reveal the hypogastric nerve which runs down the body cavity. It was essential to keep close to the side curve of the pubis wall in order to avoid damaging the femoral vein and artery which lie above the pubis. The sciatic and pelvic nerves lie deeper and were located after further dissection on the dorsal side of the rabbit. Once the sciatic nerve is identified, the pelvic nerve was easily located. The term pelvic nerve is loosely applied; anatomy books on the subject fail to identify the nerves in sufficient detail. However, stimulation of the nerve causes an increase in vaginal and clitoral blood flow, and innervation of the pelvic region. The pelvic nerve was freed away from surrounding tissue and a Harvard bipolar stimulating electrode was placed around the nerve. The nerve was slightly lifted to give some tension, then the electrode was secured in position. Approximately 1 ml of light paraffin oil was placed around the nerve and electrode. […]
A frequency response curve was determined at the start of each experiment in order to determine the optimum frequency to use as a sub-maximal response, normally 4 Hz. […]

[2] = 1.0 mg/kg iv bolus infusion, submaximal stimulation (eg 4 Hz), anaesthetised rabbit, n=3

melting point [°C] | SMILES | increase in clitoral blood flow (peak, pelvic nerve stimulated) [1, 2] [%] | increase in vaginal blood flow (peak, pelvic nerve stimulated) [1, 2] [%] | pelvic nerve stimulated increases in genital blood flow ([1]; both intravenous and topical administration, clinically relevant doses, rabbit) | peak pelvic nerve stimulated increase in vaginal blood flow ([1]; intravaginal topical application (0.2 mg/ml printed), vs mean control flow increases, n=4, P<0.001) | basal (non-stimulated) vaginal blood flow ([1]; intravaginal topical application, compared to control flow, n=4)
80 to 85 | O=C(O)C(CCc1ccccc1)CC1(C(=O)Nc2cccnc2)CCCC1 (stereo not drawn) [Example 41, 4-Phenyl-2-({1-[(3-pyridinylamino)carbonyl]cyclopentyl}methyl)butanoic acid] | – | – | – | – | –
– | CCC[C@H](CC1(C(=O)Nc2nnc(CC)s2)CCCC1)C(=O)O [Example 29, (2R)-2-[(1-{[(5-Ethyl-1,3,4-thiadiazol-2-yl)amino]carbonyl}cyclopentyl)methyl]pentanoic acid] | 131 | 92 | significantly enhanced | significantly enhanced | no effect
